Measured values from patent US20110104074A1, “METHODS FOR TARGETED CANCER TREATMENT AND DETECTION” (UNIVERSITY OF LOUISVILLE RESEARCH FOUNDATION, INC., priority 2008, published 2011).
Ends that are not written are not given here.

Tests used:
[1] = system: A2780 ovarian tumor cells; assay: Uptake of doxorubicin by ovarian tumor cells in vitro (fluorometric); assay type: cell-based; conditions: 5 nM DOX
Protocol: To determine the uptake of doxorubicin by ovarian tumor cells in vitro, ovarian tumor cells (A2780) were plated in 6-well plates. After 24 hrs of incubation, the medium was replaced with fresh medium and cells were then treated with PBS, free DOX (DOX concentration=5 nM), DOX-NPs (5 nM DOX), or LHRH-NP-DOXs (5 nM DOX). After 2, 4, and 24 hrs of incubation, cells were rinsed with PBS and scrapped off the plates and centrifuged. The pellets were resuspended in lysis buffer [[…] sucrose, 5 mM TrisHCl, 1 mM MgSO4, 1 mM CaCl2 (pH 7.6)] and homogenized using a polytron homogenizer. A 200:1 dilution of the homogenate from each sample was then transferred in triplicate to 2 ml centrifuge tubes and 100:1 of 10% (v/v) Triton X-100, 200:1 of water, and 1,500:1 of acidified isopropanol (0.75 N HCl) was added. The tubes were vortexed to ensure complete mixing and doxorubicin was extracted overnight at −20° C. The next day, the samples were thawed to room temperature, and then centrifuged at 15,000×g for 20 min. The supernatant was collected. Doxorubicin was measured fluorometrically (EX485 nm/EM590 nm) as described previously (3).

[2] = system: ovarian epithelial tumor cells lines (A2780, CAOV3, and UCI), and a cisplatin-resistant cell line (A2780/CP70); assay: Cell viability (MTT, 96-titer kit) in ovarian tumor cell lines; conditions: concentrations from 1 to 5 nM; cisplatin-sensitive and cisplatin-resistant cell lines
LHRH receptor = target: T1, LHRH receptor (Mus musculus, UniProt Q01776); assay: pCRE-luciferase reporter assay in LβT2 cells for binding to cell surface LHRH receptors; assay type: cell-based; conditions: 6 hrs treatment, read-out: binding affinities (IC50 values)
T1 construct: endogenous in cells; host or cells: LβT2 mouse gonadotrope tumor cell line
T1 sequence (Q01776 1-327): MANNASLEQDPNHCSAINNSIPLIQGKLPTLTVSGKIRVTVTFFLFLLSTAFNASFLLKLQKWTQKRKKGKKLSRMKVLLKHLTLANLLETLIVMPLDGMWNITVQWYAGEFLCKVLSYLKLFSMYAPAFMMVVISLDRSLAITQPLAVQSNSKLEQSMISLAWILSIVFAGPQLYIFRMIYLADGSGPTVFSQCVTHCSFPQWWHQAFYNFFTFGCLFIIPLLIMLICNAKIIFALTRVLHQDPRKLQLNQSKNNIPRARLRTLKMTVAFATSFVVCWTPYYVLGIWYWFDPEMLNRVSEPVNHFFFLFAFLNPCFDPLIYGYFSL
Protocol: To determine if LHRH, when conjugated to gold particles or FNPs, retained its binding affinity to the luteinizing hormone-releasing hormone receptor and its biological activity, the binding of LHRH, LHRH-NP-DOXs, and LHRH-FNP-DOXs to cell surface LHRH receptors was first examined For this purpose, a mouse gonadotrope tumor cell line (LβT2) was used that expresses high levels of high affinity LHRH receptors (82). The LβT2 cells were plated on 6-well plates. After 24 hrs, the cells were transfected with a reporter gene construct, pCRE-luciferase plasmid, as described previously (82). After 24 hrs of transfection, the medium was replaced with serum free medium, followed by incubation for 4 hrs, and then treatment of the cells with various concentrations of LHRH or LHRH-NP-DOXs for 6 hrs. Cells were then lysed and assayed for luciferase activity using a luciferase assay kit (Promega, Madison, Wis.). Binding of LHRH or LHRH-NP-DOX particles was calculated and compared as described previously (82). Experiments were repeated three times for every new preparation.

Molecule | doxorubicin found in cells compared to LHRH-NP-DOXs ([1]; after 24 hrs) | doxorubicin found in cells ([1]; within 4 hrs) | efficacy on cell death [2] | IC50 (LHRH receptor) [nM]
COc1cccc2c1C(=O)c1c(O)c3c(c(O)c1C2=O)C[C@@](O)(C(=O)CO)C[C@@H]3O[C@H]1C[C@H](N)[C@H](O)[C@H](C)O1 [DOX, doxorubicin, reference compound] | significantly lower | no detectable amount | ineffective | –
CC(C)C[C@H](NC(=O)[C@@H](Cc1c[nH]c2ccccc12)NC(=O)[C@H](Cc1ccc(O)cc1)NC(=O)[C@H](CO)NC(=O)[C@H](Cc1c[nH]c2ccccc12)NC(=O)[C@H](Cc1c[nH]cn1)NC(=O)[C@@H]1CCC(=O)N1)C(=O)N[C@@H](CCCNC(=N)N)C(=O)N1CCC[C@H]1C(=O)NCC(N)=O [LHRH, p-Glu-His-Trp-Ser-Tyr-D-Trp-Leu-Arg-Gly-NH2, reference compound] | – | – | ineffective | 0.1
LHRH-DOX (QHWSYGLRPG; also: doxorubicin conjugate; UniProt P01148 24-33, looked up) | – | – | ineffective | –
